Test results published in patent publication US11453697B1, “Cyclic di-nucleotide compounds as sting agonists” (Merck Sharp & Dohme Corp., priority 2015, dated 2022).
Read-outs that look alike come from different tables or passages of the source.

Key:
full-length HAQ STING = full-length HAQ STING (Homo sapiens (Human), UniProt Q86WV6, G230A/H232R/R293Q/R71H); assay: 3H-cGAMP filtration binding assay (HAQ STING); details: competition with tritiated cGAMP, HAQ STING membrane; read-out: EC50 (nM), 3H-cGAMP filtration binding assay for HAQ STING
Procedure, shortened: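 Competition binding of compounds against 8 nM [3H]cGAMP working stock on Hi-Five cell membranes overexpressing full-length HAQ STING; compound and membrane preincubated 60 min at RT before ligand addition. Bound radioactivity read by filtration and scintillation counting; percent activity normalized to controls, EC50 from 4-parameter fit.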

full-length WT STING = full-length WT STING (Homo sapiens (Human), UniProt Q86WV6, H232R); assay: 3H-cGAMP filtration binding assay (WT STING); details: for EC50: competition with tritiated cGAMP, WT STING membrane, read-out: EC50 (nM), 3H-cGAMP filtration binding assay for WT STING
Description: The ability of compounds to bind STING is quantified by their ability to compete with tritiated cGAMP ligand for human STING receptor membrane using a radioactive filter-binding assay.
The basic WT STING filtration assay protocol is as follows:
Tritium levels for each reaction well were then measured using a PerkinElmer TopCount plate reader.
After normalization to controls, the percent activity for each compound concentration was calculated by measuring the amount of remaining radioactivity. The plot of percent activity versus the log of compound concentration was fit with a 4-parameter dose response equation to calculate EC50 values.

[1] = test system: IFN-β secretion in THP1 cells; assay: IFN-β secretion in THP1 cell culture (5 h); assay type: cell-based, human
Procedure, shortened: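 THP1 cells incubated with compound for 5 h at 37 °C, 5% CO2, and secreted IFN-β in supernatant quantified by AlphaLISA. Percent effect normalised to 30 uM cGAMP positive control and 0.3% DMSO. EC50 from 4-parameter fit.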

[2] = IFN-β secretion in THP1 cell culture, 5 h, compound at 30 μM, percent activation relative to 2′3′-cGAMP

Sequence of full-length WT STING (Q86WV6 other isoform, or with tags, fused parts or gaps H232R (already in the parent)): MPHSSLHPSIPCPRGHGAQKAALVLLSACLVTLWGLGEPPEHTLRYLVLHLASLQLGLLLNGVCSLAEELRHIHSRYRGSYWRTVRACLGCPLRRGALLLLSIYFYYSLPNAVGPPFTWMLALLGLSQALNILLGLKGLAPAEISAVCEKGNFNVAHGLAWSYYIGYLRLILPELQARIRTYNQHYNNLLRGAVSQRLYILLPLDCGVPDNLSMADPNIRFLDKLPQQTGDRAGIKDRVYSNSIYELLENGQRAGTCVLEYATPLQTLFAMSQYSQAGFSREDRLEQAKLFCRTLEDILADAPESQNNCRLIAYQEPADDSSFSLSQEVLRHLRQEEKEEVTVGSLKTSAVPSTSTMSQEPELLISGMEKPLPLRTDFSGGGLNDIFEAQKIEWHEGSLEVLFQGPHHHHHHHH
Sequence of full-length HAQ STING (Q86WV6 other isoform, or with tags, fused parts or gaps, stated change not applied): as the sequence (Q86WV6 other isoform, or with tags, fused parts or gaps H232R (already in the parent)) above, with R71H, G230A, R293Q counted along it

Row | SMILES | EC50 (full-length WT STING) [nM] | EC50 (full-length HAQ STING) [nM] | % Effect at 30 μM relative to 2′3′-cGAMP [1] [%] | inhibition at 20 µM (full-length WT STING; read-out: % Inh @ 20 uM, 3H-cGAMP filtration binding assay for WT STING) [%] | % Effect at 30 μM relative to 2′3′-cGAMP [1, 2] [%]
1 | Nc1nc2c(ncn2[C@@H]2O[C@@H]3COP(O)(=S)O[C@H]4[C@@H](O)[C@H](n5cnc6c(N)ncnc65)O[C@@H]4COP(=O)(O)O[C@@H]2[C@@H]3O)c(=O)[nH]1 (stereo partly drawn) [Example 38, 2-amino-9-[(5R,7R,8R,12aR,14R,15R,15aS,16R)-14-(6-amino-9H-purin-9-yl)-2,10,15,16-tetrahydroxy-10-oxido-2-sulfidooctahydro-12H-5,8-methanofuro[3,2-l][1,3,6,9,11,2,10]pentaoxadiphosphacyclotetradecin-7-yl]-1,9-dihydro-6H-purin-6-one] | 24.9 | 3 | 123 | – | –
2 | Nc1nc2c(ncn2[C@@H]2O[C@@H]3COP(=O)(S)O[C@H]4[C@@H](O)[C@H](n5ccc6c(N)ncnc65)O[C@@H]4COP(=O)(O)O[C@@H]2[C@@H]3O)c(=O)[nH]1 (stereo partly drawn) [Example 43, 2-amino-9-[(5R,7R,8R,12aR,14R,15R,15aS,16R)-14-(4-amino-7H-pyrrolo[2,3-d]pyrimidin-7-yl)-10,15,16-trihydroxy-2,10-dioxido-2-sulfanyloctahydro-12H-5,8-methanofuro[3,2-l][1,3,6,9,11,2,10]pentaoxadiphosphacyclotetradecin-7-yl]-1,9-dihydro-6H-purin-6-one] | 1020 | 162 | 130 | – | –
3 | Nc1nc2c(nnn2[C@@H]2O[C@@H]3COP(O)(=S)O[C@@H]4[C@@H](COP(O)(=S)O[C@@H]2[C@H]3F)O[C@@H](n2ccc3c(N)ncnc32)C4(F)F)c(=O)[nH]1 (stereo partly drawn) [Example 220, 5-amino-3-[(5R,7R,8S,12aR,14R,15aR,16S)-14-(4-amino-7H-pyrrolo[2,3-d]pyrimidin-7-yl)-15,15,16-trifluoro-2,10-dihydroxy-2,10-disulfidooctahydro-12H-5,8-methanofuro[3,2-l][1,3,6,9,11,2,10]pentaoxadiphosphacyclotetra-decin-7-yl]-3,6-dihydro-7H-[1,2,3]triazolo[4,5-d]pyrimidin-7-one] | – | – | 6 | 29 | –
4 | Nc1nc2c(ncn2[C@@H]2O[C@@H]3COP(=O)(S)O[C@H]4C[C@H](c5cnc6c(=O)[nH]cnn56)O[C@@H]4COP(=O)(S)O[C@@H]2[C@@H]3F)c(=O)[nH]1 (stereo partly drawn) [Example 336, 7-[(5R,7R,8S,12aR,14R,15aS,16R)-7-(2-amino-6-oxo-1,6-dihydro-9H-purin-9-yl)-16-fluoro-2,10-dioxido-2,10-disulfanyloctahydro-12H-5,8-methanofuro[3,2-l][1,3,6,9,11,2,10]pentaoxadiphosphacyclotetradecin-14-yl]imidazo[2,1-f][1,2,4]triazin-4(3H)-one] | 422 | – | – | – | 85

Now from value to compound, other results behind:

Row | EC50 (full-length WT STING) [nM] | SMILES | EC50 (full-length HAQ STING) [nM] | % Effect at 30 μM relative to 2′3′-cGAMP [1] [%] | inhibition at 20 µM (full-length WT STING; read-out: % Inh @ 20 uM, 3H-cGAMP filtration binding assay for WT STING) [%] | % Effect at 30 μM relative to 2′3′-cGAMP [1, 2] [%]
5 | 302 | Nc1nc2c(ncn2[C@@H]2O[C@@H]3COP(=O)(S)O[C@H]4C[C@H](n5cc(F)c6c(N)ncnc65)O[C@@H]4COP(=O)(O)O[C@@H]2[C@@H]3F)c(=O)[nH]1 (stereo partly drawn) [Example 255, 2-amino-9-[(5R,7R,8S,12aR,14R,15aS,16R)-14-(4-amino-5-fluoro-7H-pyrrolo[2,3-d]pyrimidin-7-yl)-16-fluoro-10-hydroxy-2,10-dioxido-2-sulfanyloctahydro-12H-5,8-methanofuro[3,2-1][1,3,6,9,11,2,10]pentaoxadiphosphacyclo-tetradecin-7-yl]-1,9-dihydro-6H-purin-6-one] | – | – | – | 49
6 | 93.5 | Nc1nc2c(ncn2[C@@H]2O[C@@H]3COP(=O)(S)O[C@H]4C[C@H](n5cc(F)c6c(N)ncnc65)O[C@@H]4COP(=O)(O)O[C@@H]2[C@@H]3F)c(=O)[nH]1 (stereo partly drawn) [Example 256, 2-amino-9-[(5R,7R,8S,12aR,14R,15aS,16R)-14-(4-amino-5-fluoro-7H-pyrrolo[2,3-d]pyrimidin-7-yl)-16-fluoro-10-hydroxy-2,10-dioxido-2-sulfanyloctahydro-12H-5,8-methanofuro[3,2-1][1,3,6,9,11,2,10]pentaoxadiphosphacyclo-tetradecin-7-yl]-1,9-dihydro-6H-purin-6-one] | – | – | – | 149
